# pIC50: −log10 of the molar value. Where two headings read alike, the source gives them in different places.
# Tests used:
# [1] = system: organotypic hippocampal slice cultures, hippocampal CA1 region; assay: Oxygen/glucose deprivation of hippocampal organotypic slice cultures (PI staining); type: cell-based, Lister Hooded rat
# [2] = system: primary hippocampal neurons; assay: Excitotoxicity in dispersed primary hippocampal cultures (MTT cell survival); type: cell-based, Sprague Dawley rat
# [3] = system: SCN neurones; assay: Suprachiasmatic nucleus slices, extracellular single unit recordings; type: cell-based, rat; conditions: 10-100 μM; all neurones tested
# Description: Supraachiasmatic nucleus slices were prepared from 4-6 week old rats that had been sacrificed by cervical dislocation and subsequent decapitation in accordance with UK Home Office guidelines. The brain was removed rapidly and SCN slices prepared by cutting 400 μm thick coronal sections through the whole brain minus the cerebellum using a vibroslicer (Campden Instruments, Loughborough, UK). The resultant SCN slices were placed in a warmed (32-34° C.) submersion recording chamber perfused at 1-2 ml.min^−1 with an oxygen-enriched (95% O2, 5% CO2) artificial cerebrospinal fluid (aCSF) comprised of (mM): NaCl, 124; KCl, 3; NaHCO3, 26; NaH2PO4, 1.25; CaCl2, 2; MgSO4, 1; D-glucose, 10. Extracellular single unit recordings were made using glass microelectrodes (24 MΩ) filled with aCSF placed in the SCN.
# [4] = system: voltage-gated Ca2+ channel; assay: Selectivity: voltage-gated Ca2+ channel activation; type: cell-based; conditions: 100 μM
# [5] = system: hippocampal cultures; assay: Spontaneous synaptic activity and membrane potential in hippocampal cultures, Mg2+-free insult; type: cell-based, rat; conditions: 100 μM; applied before, during or after the Mg2+-free insult
# Description: When Mg^2+ containing medium was reinstated 15 mins later there was a sustained increase in spontaneous activity above that recorded prior to the Mg^2+ free challenge. No change in the magnitude of the Ih current was recorded during or after the Mg^2+ free challenge. […] This reduction in activity differed from that induced by the NMDA receptor antagonist AP5 in that the frequency of activity in the presence of ZD7288 was much lower, yet individual events were much larger, than that observed in AP5.
# [6] = system: Ih; assay: Whole-cell patch-clamp detection of Ih in neurones from both culture models; type: cell-based, rat
# [7] = system: metabotropic glutamate receptor; assay: Selectivity: metabotropic glutamate receptor activation; type: cell-based; conditions: 100 μM
# [8] = system: NMDA receptor; type: cell-based
# [9] = system: hippocampal slices; assay: Epileptiform bursting activity in hippocampal slices (field recordings, area CA3); type: cell-based, rat; conditions: irrespective of model: bicuculline, Mg2+-free, 4-AP, Ca2+-free/elevated K+
# Description: Hippocampal slices were prepared from 4-6 week old rats that had been sacrificed by cervical dislocation and subsequent decapitation in accordance with UK Home Office guidelines. The brain was removed rapidly and hippocampal slices prepared by cutting 400 μm thick horizontal sections through the whole brain minus the cerebellum using a vibroslicer (Campden Instruments, Loughborough, UK). The hippocampus from these sections was dissected free from the surrounding brain regions and the resultant hippocampal slices placed on a nylon mesh at the interface of a warmed (32-34° C.), perfusing (1-2 ml.min^−1) artificial cerebrospinal fluid (aCSF) and an oxygen-enriched (95% O2, 5% CO2), humidified atmosphere. The standard perfusion medium comprised (mM): NaCl, 124; KCl, 3; NaHCO3, 26; NaH2PO4, 1.25; CaCl2, 2; MgSO4, 1; D-glucose, 10; and was bubbled with 95% O2, 5% CO2. Extracellular field potential recordings were made using glass microelectrodes (24 MΩ) filled with aCSF placed in stratum pyramidale in area CA3. […] Non synaptic field bursting activity (that is relevant to both epilepsy and migraine) was induced by removal of extracellular Ca^2+ and elevation of extracellular K^+ from 3 mM to 6-8 mM (FIG. 12).
# [10] = system: HCN channels; conditions: non use-dependent; cited from earlier work
# [11] = system: voltage-gated Na+ and K+ channels; assay: Selectivity: action potential firing; type: cell-based; conditions: 100 μM
smiles,measurement,setting,value
C[C@]12N[C@H](Cc3ccccc31)c1ccccc12 [MK-801],DAMAGE (% Cell Loss),[1],34.90 ± 15.99%
same,NEURONAL SURVIVAL (%),[2],101 ± 1.2%
"CCN(c1ccccc1)c1cc(=NC)n(C)c(C)n1.Cl [ZD7288, N-ethyl-1,6-dihydro-1,2-dimethyl-6-(methylimino)-N-phenyl-4-pyrimidinamine hydrochloride]",effect on frequency of single unit firing,[3],concentration dependent reduction
same,direct effects on voltage-gated Ca2+ channel activation,[4],no direct effects
same,DAMAGE (% Cell Loss),"[1]; 100 nM, added 60 minutes before, during, and for 24 h after the insult",64.01 ± 4.66%
same,DAMAGE (% Cell Loss),"[1]; 300 nM, added 60 minutes before, during, and for 24 h after the insult",15.12 ± 9.54%
same,DAMAGE (% Cell Loss),"[1]; 1 μM, added 60 minutes before, during, and for 24 h after the insult",0.72 ± 0.44%
same,DAMAGE (% Cell Loss),"[1]; 10 μM, added 60 minutes before, during, and for 24 h after the insult",4.58 ± 3.09%
same,DAMAGE (% Cell Loss),"[1]; 100 μM, added immediately after the insult and for the 24 h recovery period only",12.50 ± 8.24%
same,neuroprotection,"[1]; applied immediately after oxygen glucose deprivation, FIG. 3",neuroprotection was still observed
same,electrophysiological responses in stratum pyramidale and stratum radiatum of area CA1,"[1]; treated slices subjected to OGD, single-shock electrical stimulation in stratum radiatum, FIG. 3",possible to evoke normal electrophysiological responses
same,effect on membrane potential / current,[5],induced a membrane potential hyperpolarization/outward current
same,effect on spontaneous activity,[5],reduced spontaneous activity
same,block of Ih,[6]; 100 μM,almost completely blocked
same,inhibition of hyperpolarization-activated current (Ih),[6]; 0.1-100 μM,inhibited
same,direct effects on metabotropic glutamate receptor activation,[7],no direct effects
same,direct effects on NMDA receptor activation,[8],no direct effects
same,effect on epileptiform bursting activity,[9],concentration dependent inhibition
same,NEURONAL SURVIVAL (%),"[2]; 1 μM, added 30 minutes before, during, and for 24 h after the insult",40.6 ± 4.9%
same,NEURONAL SURVIVAL (%),"[2]; 3 μM, added 30 minutes before, during, and for 24 h after the insult",40.1 ± 8.1%
same,NEURONAL SURVIVAL (%),"[2]; 10 μM, added 30 minutes before, during, and for 24 h after the insult",48.4 ± 5.5%
same,NEURONAL SURVIVAL (%),"[2]; 30 μM, added 30 minutes before, during, and for 24 h after the insult",56.7 ± 2.0%
same,NEURONAL SURVIVAL (%),"[2]; 100 μM, added 30 minutes before, during, and for 24 h after the insult",65.9 ± 3.7%
same,NEURONAL SURVIVAL (%),"[2]; 100 μM, added during the 24 h recovery period only",78.0 ± 5.5%
same,NEURONAL SURVIVAL (%),"[2]; 100 μM, added during the insult only",79.5 ± 2.1%
same,NEURONAL SURVIVAL (%),"[2]; 300 μM, added 30 minutes before, during, and for 24 h after the insult",88.5 ± 2.7%
same,NEURONAL SURVIVAL (%),"[2]; 300 μM, added during the 24 h recovery period only",101.0 ± 1.2%
same,NEURONAL SURVIVAL (%),"[2]; 300 μM, added during the insult only",97.9 ± 9.6%
same,delay of application after the insult without loss of neuroprotective efficacy,[2]; FIG. 4,up to 60 minutes
same,pIC50,"[2]; Rattus norvegicus, Hippocampal neuron, hippocampal neurones, read-out: IC50 for inhibition of damage",~3.92
same,concentration range inhibiting HCN channels,[10],1 to 300 µM
same,direct effects on action potential firing (activation of voltage-gated Na+ and K+ channels),[11],no direct effects

# Reference: US20040033943A1, “Hcn polypeptides and polynucleotides and their use in therapy” (priority 2000, published 2004)
